# Compound: Cn1cnc2c(F)c(Nc3ccc(Br)cc3Cl)c(C(=O)NOCCO)cc21 [Selumetinib] + Cc1nc(Nc2ncc(C(=O)Nc3c(C)cccc3Cl)s2)cc(N2CCN(CCO)CC2)n1 [Dasatinib] (partner 0.075 µM)
# Experiment: relative viability (nuclei count vs DMSO), 5 days (fraction); higher = more cells survive
# Conditions: first compound 0.6325 µM
# Outline: (§1)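 Dosing by pin tool came one day after lung cancer cell lines were seeded in 1536-well plates, using either one drug or a fixed anchor-drug dose plus five library-drug doses (not always all listed) in √10 steps. After 5 days, nuclei were counted on 4× images. Relative viability is treated-well nuclei count divided by vehicle-well nuclei count, and values are medians of duplicate plates.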
row,Cell Line,relative viability
1,NCI-H2087,0.13
2,HCC-366,0.367
3,RERF-LC-KJ,0.766
4,EKVX,0.276
5,LCLC-103H,0.491
6,NCI-H1651,0.362
7,NCI-H2009,0.151
8,SW 1573,0.446
9,SK-LU-1,0.141

# Compound: Cn1cnc2c(F)c(Nc3ccc(Br)cc3Cl)c(C(=O)NOCCO)cc21 [Selumetinib] + O=C(CCCCCCC(=O)Nc1ccccc1)NO [Vorinostat] (partner 1 µM)
# Experiment: as above
# Conditions: first compound 0.02 µM
# Outline: as §1
row,Cell Line,relative viability
1,BEN,0.527
2,HCC-15,0.656
3,HCC-827,1
4,NCI-H460,0.48
5,LU99A,0.521
6,NCI-H2085,0.76
7,A-427,0.93
8,NCI-H520,0.774
9,NCI-H838,0.644
10,NCI-H596,0.368
11,NCI-H3122,0.988
12,201T,0.929
13,NCI-H1993,0.85
14,HOP-62,0.579
15,NCI-H1355,0.561
16,NCI-H2405,1.18
17,NCI-H1437,0.749

row,Cell Line,relative viability
1,NCI-H661,0.882
2,CAL-12T,0.81
3,H3255,0.671
4,NCI-H2347,0.521
5,NCI-H1975,0.726
6,NCI-H441,0.843
7,NCI-H1650,0.569
8,NCI-H1915,0.598
9,NCI-H2087,0.582
10,HCC-366,0.335
11,RERF-LC-KJ,0.649
12,EKVX,0.557
13,LCLC-103H,0.811
14,NCI-H1651,0.554
15,NCI-H2009,0.675
16,SW 1573,0.652
17,SK-LU-1,0.779

# Same assay, conditions: first compound 0.06325 µM
row,Cell Line,relative viability
1,BEN,0.558
2,HCC-15,0.586
3,HCC-827,0.906
4,NCI-H460,0.492
5,LU99A,0.472
6,NCI-H2085,0.757
7,A-427,0.94
8,NCI-H520,0.73
9,NCI-H838,0.54
10,NCI-H596,0.557
11,NCI-H3122,0.651
12,201T,0.876
13,NCI-H1993,0.6
14,HOP-62,0.556
15,NCI-H1355,0.529
16,NCI-H2405,1.04
17,NCI-H1437,0.7

row,Cell Line,relative viability
1,NCI-H661,0.772
2,CAL-12T,0.724
3,H3255,0.752
4,NCI-H2347,0.467
5,NCI-H1975,0.605
6,NCI-H441,0.868
7,NCI-H1650,0.526
8,NCI-H1915,0.492
9,NCI-H2087,0.258
10,HCC-366,0.41
11,RERF-LC-KJ,0.656
12,EKVX,0.531
13,LCLC-103H,0.768
14,NCI-H1651,0.552
15,NCI-H2009,0.717
16,SW 1573,0.582
17,SK-LU-1,0.717

# Same assay, conditions: first compound 0.2 µM
row,Cell Line,relative viability
1,BEN,0.59
2,HCC-15,0.435
3,HCC-827,0.999
4,NCI-H460,0.428
5,LU99A,0.476
6,NCI-H2085,0.739
7,A-427,0.976
8,NCI-H520,0.785
9,NCI-H838,0.654
10,NCI-H596,0.578
11,NCI-H3122,0.84
12,201T,0.877
13,NCI-H1993,0.597
14,HOP-62,0.555
15,NCI-H1355,0.488
16,NCI-H2405,0.818
17,NCI-H1437,0.576

row,Cell Line,relative viability
1,NCI-H661,0.75
2,CAL-12T,0.569
3,H3255,0.846
4,NCI-H2347,0.36
5,NCI-H1975,0.582
6,NCI-H441,0.783
7,NCI-H1650,0.408
8,NCI-H1915,0.504
9,NCI-H2087,0.514
10,HCC-366,0.344
11,RERF-LC-KJ,0.629
12,EKVX,0.446
13,LCLC-103H,0.712
14,NCI-H1651,0.564
15,NCI-H2009,0.65
16,SW 1573,0.703
17,SK-LU-1,0.686

# Same assay, conditions: first compound 0.6325 µM
row,Cell Line,relative viability
1,BEN,0.632
2,HCC-15,0.393
3,HCC-827,0.957
4,NCI-H460,0.228
5,LU99A,0.501
6,NCI-H2085,0.718
7,A-427,0.878
8,NCI-H520,0.71
9,NCI-H838,0.636
10,NCI-H596,0.606
11,NCI-H3122,0.651
12,201T,0.814
13,NCI-H1993,0.612
14,HOP-62,0.349
15,NCI-H1355,0.382
16,NCI-H2405,0.987
17,NCI-H1437,0.429

row,Cell Line,relative viability
1,NCI-H661,0.799
2,CAL-12T,0.507
3,H3255,0.797
4,NCI-H2347,0.283
5,NCI-H1975,0.473
6,NCI-H441,0.778
7,NCI-H1650,0.587
8,NCI-H1915,0.377
9,NCI-H2087,0.445
10,HCC-366,0.445
11,RERF-LC-KJ,0.637
12,EKVX,0.384
13,LCLC-103H,0.691
14,NCI-H1651,0.572
15,NCI-H2009,0.377
16,SW 1573,0.914
17,SK-LU-1,0.443
